How the values were obtained:
MCF-7 cells [1] = settings: by enhancing cytotoxicity of alkylating agents, cisplatin and melphalan; cited from earlier work
PANC-1 cells [2] = settings: cited from earlier work
PANC-1 cells [3] = test: Untargeted metabolomics (1D 1H NMR) of intracellular metabolome; type: cell-based, human; settings: PANC-1, MNF 1 μM
Experimental: (§1) The cells were seeded on 100×20 mm tissue culture plates and maintained at 37° C. under humidified 5% CO2 in air until they reached >70% confluence. The original media was replaced with media containing 0.5 μM or 1 μM MNF and the plates were incubated for an additional 1 hour, unless otherwise indicated. After completion of incubations, the media was aspirated and the cells were washed twice with 10 ml of phosphate buffer saline (pH 7.4) (PBS). The cells were then collected in 10 ml PBS by scrapping and sedimented by centrifugation (1000 rpm, 5 min), and the supernatant discarded. The cell pellets were stored at −80° C. until analyzed.
The cell pellet was re-suspended in 1 ml of 80% methanol (cryogenically cold) and incubated at −80° C. for 15 minutes. This suspension was then centrifuged at 13,000×g for 10 minutes at 4° C. The supernatant was collected in an eppendorf tube and the pellet was suspended in 0.25 ml of water. The suspension was vortexed mixed for 1 minute and centrifuged at 13,000×g for 10 minutes at 4° C. The supernatant was collected and mixed with the supernatant collected in the previously step and stream dried under nitrogen. The sample was stored at −80° C. until analyzed.
Sample Preparation and NMR Analysis—Non-Targeted Metabolomics.
The Cell pellet was re-suspended in 1 ml of 80% methanol (cryogenically cold) and incubated at −80° C. for 15 minutes. This suspension was then centrifuged at 13,000×g for 10 minutes at 4° C. The supernatant was collected in an eppendorf tube and the pellet was suspended in 0.25 ml of water. The suspension was vortexed mixed for 1 minute and centrifuged at 13,000×g for 10 minutes at 4° C. The supernatant was collected and mixed with the supernatant collected in the previously step and stream dried under nitrogen. The sample was stored at −80° C. until analyzed. The samples were prepared for NMR experimentation by dissolving in 0.6 ml of 50 mM phosphate buffer (pH 7.2) in 99.8% D2O with 50 μM 3-(tetramethysilane)propionic acid-2,2,3,3-d4 (TMSP). NMR spectra were recorded on a Bruker Avance III-HD 700 MHz spectrometer equipped with a QCI-P cryoprobe and a SampleJet automated sample changer. 1D ^1H spectra were collected using excitation sculpting to remove the solvent signal. A total of 16 k data points with a spectral width of 5482.5 Hz, 8 dummy scans, and 256 scans were used to obtain each spectrum. The data was processed completely in MVAPACK.
An untargeted metabolomics approach using one-dimensional proton nuclear magnetic resonance (1D ^1H NMR) was used to examine the effect of MNF incubation (1 μM, 1 hour) on the intracellular metabolome of PANC-1 cells.

PANC-1 = test: Proliferation in pancreatic cancer (PancCA) cell lines; type: cell-based, human; settings: including PANC-1
MDA-MD-231 cells = test: Expression of ABC exporters in MDA-MB-231 cells; type: cell-based, human; settings: incubation with MNF
Description: See, FIG. 6A. In MDA-MD-231 cells, MNF reduced the expression of P-gp and BCRP while the signal associated with MRP-1 was too faint to detect in the untreated controls as shown in FIG. 6B. As observed in the expression of cyclin D1, the expression of ABC transporters has been associated with EGFR expression and activity and nuclear translocation of PKM2. Thus, the observed effects are consistent with an MNF-associated reduction in EGFR expression and activity through it effect on glycolysis.

MCF-7 cells [4] = test: Expression of ABC exporters in MCF-7 cells; type: cell-based, human; settings: incubation with MNF
[5] = tested on: MDA-MB-231 breast cancer cells; test: Intracellular lactate, targeted metabolomics (LC/MS); type: cell-based, human; settings: MDA-MB-231, MNF (1 µM), 3 hours
Experimental: as §1, with “analyzed. […]” for “analyzed.”
The cells pellets were suspended in 20 μL water, 10 μL of 0.1 mM p-aminohippuric acid as an internal standard was added and the resulting mixture vortex mixed for 1 minute. […] The supernatant was collected and analysed using a system composed of an Agilent Technologies 1100 LC/MSD equipped with a G1322A degasser, G1312A quaternary pump, G1367A autosampler, G1316A column thermostat and G1946D mass spectrometer supplied with electrospray ionization (ESI). […] The compound of interest were monitored in the positive-ion mode for SIM at m/z 162.1 (carnitine), m/z 90.1 (lactate) and m/z 105.1 (3-hydroxybutyrate). The internal standard was monitored at m/z 195.1 (p-aminohippuric acid). […]

Structure (SMILES): O=C(O)c1nn(Cc2ccc(Cl)cc2Cl)c2ccccc12 [lonidamine]
- cellular survival (MCF-7 cells [1]): lowers cellular survival

Structure (SMILES): O=C(O)C(=O)CBr [3-bromopyruvate]
- cellular survival (PANC-1 cells [2]): lowers cellular survival

Structure (SMILES): COc1ccc(C[C@@H](C)NC[C@H](O)c2cc(O)cc(O)c2)c2ccccc12 [MNF, (R,R′)-4′-methoxy-1-naphthylfenoterol]
- relative expression of 3-hydroxybutyrate (PANC-1 cells [3]): increase
- signal associated with carnitine (PANC-1 cells [3]): significantly upregulated
- signal associated with glycine (PANC-1 cells [3]): significantly upregulated
- signal associated with leucine (PANC-1 cells [3]): significantly upregulated
- signal associated with lysine (PANC-1 cells [3]): significantly upregulated
- signal associated with lactate (PANC-1 cells [3]; vs untreated cells): significantly reduced
- proliferation (PANC-1): significantly reduce proliferation
- expression of BCRP (MDA-MD-231 cells): reduced
- expression of P-gp (MDA-MD-231 cells): reduced
- expression of BCRP (MCF-7 cells [4]): significantly reduced
- expression of MRP-1 (MCF-7 cells [4]): significantly reduced
- expression of P-gp (MCF-7 cells [4]): significantly reduced
- reduction in the intracellular concentration of lactate [5]: ~50%

From patent US20180042867A1, “METHODS OF TREATING CANCER” (Mitchell Woods Pharmaceuticals, Inc., priority 2015, published 2018)
